The values that follow come from patent US20140128337A1, “Curcuminoids in Combination Docetaxel for the Treatment of Cancer and Tumour Metastasis” (Institut National de la Sante et de la Recherche Medicale …, priority 2009, published 2014).

The target in one data set is T1, P-glycoprotein (Pgp) (Homo sapiens, UniProt P08183).
T1 construct: expressed in transfected cells; host or cells: MDCK (canine kidney) cells stably transfected with human MDR1
Nature of the data set: Inhibition of [3H]-VBL efflux by MDCK-MDR1 cells. The following applies: CV-3988 10 uM, 30-min pre-exposure. Type of data set: cell-based.

The next data set deals with MCF7 cells. Put plainly: MCF7 cell survival, Ho assay. Type of data set: cell-based, human. The following applies: DTX 5 uM (clinical dose), 72 h, P<0.01. On the procedure:
(§1) The drugs were administered in DMSO 0.5%. Cell proliferation and attachment to the matrix were determined by measuring the amount of resazurin reduced by esterases from living cells (RTT assay) and by measuring the amount of attached biomass with the DNA binding agent (Ho 33342). Fluorescence was assayed at 590/630 nm (RTT assay) or 360/460 nm (Ho assay) as described in (Barthomeuf et al. Planta Med 2002).
Treatment by DTX at clinical dose contributes to induction of drug resistance. […] We finally examined the effect of DTX on MCF7 cell survival and HIF-1 transcription. In this aim, DTX was tested at 2 concentrations 1 nM and 5 uM (a concentration representative of blood levels after DTX administration, Investigator Brochure 2002). Al tests were carried out on highly proliferative cells cultured in MEM medium supplemented with 10% FBS. Survival was assayed with the Ho assay after 6 h and 72 h.

A further data set deals with survivin. Put plainly: Western blot of survivin in MCF7 cells. The following applies: MCF7, DTX at clinical doses. Type of data set: cell-based, human. The procedure:
(§2) Western blot: After treatment, control and treated cells were washed with PBS, then incubated in PBS containing 1 mM of each NaF and Na3VO4 and solubilized on ice in lysis buffer [150 mM NaCl, 10 mM Tris-HCl, pH 7.4, 1 mM EDTA, 1 mM EGTA, 1 mM NaF, 1 mM Na3VO4, 0.5% (v/v) Nonidet P-40, and 1% (v/v) Triton X-100] or in FosRipa buffer (10 mM Tris/HCl pH 7.5, 250 mM NaCl, 0.1% SDS, 1% Nonidet P40, 1% sodium deoxycholate). When needed insoluble pellets were solubilized in Laemmli samples buffer (62.5 mM Tris-HCl pH 6.8, 2.4% SDS, 100 mM DDT, 10% glycerol, 1 mM EDTA, 0.001% bromphenol blue), heated for 5 min at 96° C. and centrifuged briefly before loading. Protein concentrations and Western blotting was performed according to standard procedures. Equal amounts of protein (50 μg) were loaded for separation via 7.5% SDS-PAGE. Mouse monoclonal antisera directed against HIF-1α or survivin were used as primary antibodies and horseradish peroxidase-coupled anti-mouse (Dako) as secondary antibodies.

The subject of another data set is HIF-1α. Put plainly: Western blot of HIF-1α in MCF7 cells. It is filed as cell-based, human. On the procedure: as §2, with “When needed insoluble pellets were solubilized in Laemmli samples buffer (62.5 mM Tris-HCl pH 6.8, 2.4% SDS, 100 mM DDT, 10% glycerol, 1 mM EDTA, 0.001% bromphenol blue), heated for 5 min at 96° C. and centrifuged briefly before loading.” left out, “Equal amounts of protein (50 μg) were loaded for separation via 7.5% SDS-PAGE.” left out
Then HIF-1α was assessed by Western blotting.

The conditions of data set [1]: DTX treatment alone; cited from earlier work.
Data set [2] deals with MDA-mb-468 breast carcinoma cells. Nature of the data set: Cell proliferation, resazurin reduction test (RTT assay). It is filed as cell-based, human. The procedure: (§3) Cell culture: Madine Darby canine kidney (MDCK-MDR1) cells, provided by Amanda Yancy (AstraZeneca Pharmaceuticals), were cultured in DMEM supplemented with 10% FBS as reported previously (Barthomeuf et al. 2005). Human primary fibroblasts were purchased from Biopredic International (Rennes, France). Human MCF7 (ER+breast), A549 (non small cell lung), PC3 (androgen-resistant prostate) DLD1 (colon), PA1 (ovary), MDA-mb-231 (ER-, PTEN positive), MDA-mb-468 (ER-, PTEN negative) carcinoma and U87 (glioblastoma) lines were purchased from the European Collection of Cell Cultures (ECACC,
(§4) Salibury, UK) or the American Type Culture Collection (ATCC, Manassas, Va.). Cells were cultured in modified Eagle's medium (MEM) supplemented with 10% fetal calf serum, 2 mM L-glutamine and 100 units/ml penicillin, and 100 μg/ml streptomycin (Barthomeuf et al. 2002) or MEM supplemented with 1 mM sodium pyruvate and containing 10% FBS and antibiotics (U-87). The cells were cultured at 37° C. under a humidified 95%-5% (v/v) mixture of air and CO2.
as §1
(§5) The human tested lines include highly invasive U87 glioblastoma cells (SphK1 overexpression), 5 human carcinoma lines: weakly invasive MCF7 (estrogen receptor (ER) and PTEN positive) and metastatic MDA-mb-468 (ER and PTEN lack of function) breast carcinoma cells, metastatic PC3 (androgen resistant, p53 loss of function) prostate carcinoma cells, highly proliferative PA1 ovarian carcinoma cells and DLD1 (Pgp-positive) colon carcinoma cells. Primary fibroblasts were used as a model of human non-tumoral cells. Assays were conducted on exponentially growing human cells cultured overnight in MEM supplemented with 10% FBS. […] This supports a value of curcumin/DTX combination for treatment of tumors displaying these characteristics.

In data set [3] the test system is PA1 ovarian carcinoma cells. The data set is described as above. It is filed as cell-based, human. The following applies: curcumin 10 uM. On the procedure: as §3, §4, §1, §5
The test system of the next data set is primary fibroblasts. The description is as above. The following applies: curcumin 10 uM. It is filed as cell-based, human. The procedure:
as §3, §4, §1, §5

Data set [4] concerns panel of cancer lines issued from human solid tumors. Nature of the data set: Antiproliferative effect on a panel of cancer lines, resazurin reduction test. It is filed as cell-based. The following applies: curcumin 10 uM. On the procedure:
as §3
(§6) Salibury, UK) or the American Type Culture Collection (ATCC, Manassas, Va.). Cells were cultured in modified Eagle's medium (MEM) supplemented with 10% fetal calf serum, 2 mM L-glutamine and 100 units/ml penicillin, and 100 μg/ml streptomycin (Barthomeuf et al. 2002) or MEM supplemented with 1 mM sodium pyruvate and containing 10% FBS and antibiotics (U-87). […]
The drugs were administered in DMSO 0.5%. Cell proliferation and attachment to the matrix were determined by measuring the amount of resazurin reduced by esterases from living cells (RTT assay) and by measuring the amount of attached biomass with the DNA binding agent (Ho 33342). Fluorescence was assayed at 590/630 nm (RTT assay) or 360/460 nm (Ho assay) as described in (Barthomeuf et al. Planta Med 2002). […]

For the next data set, the system named is U87 glioblastoma cells. Put plainly: Curcumin/DTX co-treatment, cell proliferation and survival. It is filed as cell-based, human. The following applies: curcumin 10 uM + DTX 1 nM, 48 h co-treatment. On the procedure: as §3, §6, §1
Another data set has as its system PAF synthesis. Nature of the data set: PAF synthesis, incorporation of [3H]-acetate into lyso-PAF in MDCK-MDR1 cells. Type of data set: cell-based, canine. The following applies: curcumin 30 min, doses observable in man. On the procedure:
PAF synthesis: PAF synthesis was measured by incorporation of [^3H]-acetate into lyso-PAF accordingly to the protocol described in (Bernatchez PN et al. Br. J. Pharmacol. 2001 134: 1252-1262 and Barthomeuf C. et al. Free Rad Biol Med 2006, 40: 581-590). […] The reaction was stopped by addition of acidified methanol. Polar lipids were isolated according to Bligh and Dyer. After solvent evaporation under N2, ^3H-PAF was purified by HPLC on silica gel, and quantified by radioactivity counting vs authentic ^3H-PAF.

In data set [5] the test system is advanced colorectal cancer. The following applies: 36-180 mg/day; cited from earlier work.

Structures are written as SMILES.

T1 sequence (P08183 whole entry): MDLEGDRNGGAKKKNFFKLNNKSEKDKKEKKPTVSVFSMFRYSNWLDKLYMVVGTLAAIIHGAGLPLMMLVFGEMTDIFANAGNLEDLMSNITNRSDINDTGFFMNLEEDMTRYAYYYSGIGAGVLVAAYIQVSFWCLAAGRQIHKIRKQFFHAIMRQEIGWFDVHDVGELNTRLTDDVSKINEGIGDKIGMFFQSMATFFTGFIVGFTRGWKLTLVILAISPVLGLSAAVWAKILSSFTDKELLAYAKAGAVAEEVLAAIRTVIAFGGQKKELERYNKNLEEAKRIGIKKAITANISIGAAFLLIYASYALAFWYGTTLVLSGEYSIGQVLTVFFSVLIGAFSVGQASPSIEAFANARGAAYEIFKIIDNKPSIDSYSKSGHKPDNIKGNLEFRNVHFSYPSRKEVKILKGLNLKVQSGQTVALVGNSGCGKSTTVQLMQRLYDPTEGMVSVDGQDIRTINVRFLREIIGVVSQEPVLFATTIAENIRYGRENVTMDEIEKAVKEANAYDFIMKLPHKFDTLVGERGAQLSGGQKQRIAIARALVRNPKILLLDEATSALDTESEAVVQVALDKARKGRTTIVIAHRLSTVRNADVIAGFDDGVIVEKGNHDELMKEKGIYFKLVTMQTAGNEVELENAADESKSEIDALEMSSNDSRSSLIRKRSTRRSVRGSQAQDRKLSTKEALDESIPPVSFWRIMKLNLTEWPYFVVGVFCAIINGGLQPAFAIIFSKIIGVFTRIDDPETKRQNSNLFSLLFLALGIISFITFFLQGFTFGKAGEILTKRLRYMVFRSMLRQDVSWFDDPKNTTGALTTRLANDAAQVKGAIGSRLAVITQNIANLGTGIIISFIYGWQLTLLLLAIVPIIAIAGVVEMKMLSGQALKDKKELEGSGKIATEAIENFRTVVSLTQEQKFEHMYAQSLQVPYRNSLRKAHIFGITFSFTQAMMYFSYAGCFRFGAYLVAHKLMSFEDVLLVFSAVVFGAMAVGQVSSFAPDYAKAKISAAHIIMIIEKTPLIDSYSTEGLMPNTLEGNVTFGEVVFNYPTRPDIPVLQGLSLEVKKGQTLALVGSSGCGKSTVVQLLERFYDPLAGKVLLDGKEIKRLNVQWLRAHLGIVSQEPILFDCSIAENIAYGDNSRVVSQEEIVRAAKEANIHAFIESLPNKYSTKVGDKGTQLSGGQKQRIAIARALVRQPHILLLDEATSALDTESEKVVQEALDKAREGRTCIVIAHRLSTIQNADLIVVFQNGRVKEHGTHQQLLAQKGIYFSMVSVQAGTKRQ
Experimental for P-glycoprotein (Pgp): Inhibition of [^3H]-VBL efflux by MDCK-MDR1 cells: [^3H]-VBL was determined by scintillation counting accordingly to (Barthomeuf et al. Cancer Chemother Pharmacol 2005; 56: 173-81). […] The cells were then exposed for 120 min to 20 nM of ^3H-VBL (0.23 μCi). ^3H-VBL accumulation was stopped by washing the cells (5-fold) with cold PBS (150 mM NaCl, 2.7 mM KCl, 1.3 mM KH2PO4, 8.1 mM, Na2HPO4, pH 7.4). The cells were lysed with 0.1% Triton X-100 and the radioactivity was counted.

With `CCCCCCCCCCCCCCCCCCNC(=O)OCC(COP(=O)([O-])OCC[n+]1ccsc1)OC` (stereo not drawn) [CV-3988], the “(3H)-VBL accumulation in MDCK-MDR1 cells” value on P-glycoprotein (Pgp) is on record as “promotes (^3H)-VBL accumulation”.

`CC(=O)O[C@@]12CO[C@@H]1C[C@H](O)[C@@]1(C)C(=O)[C@H](O)C3=C(C)[C@@H](OC(=O)[C@H](O)[C@@H](NC(=O)OC(C)(C)C)c4ccccc4)C[C@@](O)([C@@H](OC(=O)c4ccccc4)[C@H]21)C3(C)C` [DTX, (2R,3S)-N-carboxy-3-phenylisoserine, N-tert-butyl ester, 13-ester with 5, 20-epoxy-1,2,4,7, 10, 13-hexahydroxytax-11-en-9-one 4-acetate 2-benzoate, trihydrate] gave an MCF7 survival decreased with MCF7 cells of 92%. Also, the “survivin expression in surviving cells vs control” value in the data set with survivin was “higher amount of survivin than control cells”. In addition, the “HIF-1α in resistant sub-populations vs control” value in the data set on HIF-1α (MCF7, DTX at clinical doses) is given as “higher amounts of HIF-1α than control cells”; in the data set on HIF-1α (MCF7, DTX at low concentration), “less HIF-1α than control cells”. For the same compound, the “number of objective responses usually observed” value in data set [1] is reported as “around 50%”.

On to `COc1cc(/C=C/C(=O)CC(=O)/C=C/c2ccc(O)c(OC)c2)ccc1O` [curcumin, (1E,6E)-1,7-bis (4-hydroxy-3-methoxyphenyl)-1,6-heptadiene-3,5-dione], for which the proliferation decreased in data set [2] (curcumin 10 uM) stood at 23%. Besides, the “effect of co-treatment on DTX efficacy” value in data set [2] (curcumin 10 uM + DTX 1 nM, 48 h co-treatment) is “enhances in a synergistic manner DTX efficacy”; in the data set on U87 glioblastoma cells, “enhances in a synergistic manner DTX efficacy”. In data set [3], the “proliferation of PA1 cells” value is “suppressed”. Besides, in the data set with primary fibroblasts, the “toxicity for primary fibroblasts” value is “without significant toxicity”. In addition, in data set [4], the “growth of all tested tumor lines” value is recorded as “strongly impairs the growth”. Moreover, the PAF synthesis entry with PAF synthesis is “down-regulation of PAF synthesis”. Further, the “HIF-1α level after curcumin post-treatment” value in the data set on HIF-1α (MCF7, DTX 5 uM 72 h, then 6 h EGF 10 ng/mL + MG-132 with or without curcumin 10 uM) is “lower amount of HIF-1α”. Moreover, the “stabilisation, patients” value in data set [5] was 5/15.
